# What was measured:
# [1] = Fading suppressing effect, UV Fade Meter irradiation (Experiment Example 5); conditions: pH 3.1, final MY 0.003%, γ-CD 0.01%, EMIQ […]
# Protocol: (§1) Specifically, a colorant-containing acidic drink of the formulation below was prepared. Then, a 3% MY preparation (product name: SanMelin**Y-AF*) and a MY/γ-CD inclusion product (MY: γ-CD=1:1.2) (containing 3% myricitrin) prepared in Example 2 were added to the drink to a final MY concentration of 0.003% or to a final γ-CD (Wacker Chemical) concentration of 0.01%.
# (§2) The drinks were irradiated with a UV Fade Meter (UV Long-Life Fade Meter FAL-3, Suga Test Instruments Co., Ltd.) or a fluorescent light (BIOTRON LH 300, NK System) for the durations presented in Tables 6 and 7. Absorbance was measured before and after the irradiation, and the percentage of remaining color (%) after the irradiation was calculated. Further, as a control test, a colorant-containing acidic drink was irradiated with the UV Fade Meter or fluorescent light as above without adding anything (no addition), and the percentage of remaining color (%) after the irradiation was calculated.
# [2] = Flavor deterioration suppressing effect, sensory evaluation of drinks after light or heat stress test (Experiment Example 6); set-up: key: 1 = no-addition blank drink, 5 = drink before the test; conditions: added 0.1% (γ-CD 0.01%)
# Protocol: Various drinks mixed with the MY or MY composition were subjected to a light or heat stress test (accelerated test) to evaluate the flavor deterioration suppressing effect of the MY or MY composition.
# Specifically, eight drinks were prepared in the formulations 1 to 8 below. Then, a 3% MY preparation (product name: SanMelin**Y-AF*), a MY/γ-CD inclusion product preparation (MY: γ-CD=1:1.2) (containing 3% MY) prepared in Example 2, a MY/γ-CD inclusion product preparation (MY: γ-CD=1:1.2) (containing 6% MY) prepared in Example 3, and γ-CD (Wacker Chemical) were added thereto in the final concentrations shown in FIG. 10.
# The drinks prepared as above were tested under the severity conditions presented in Table 10, and changes in drink flavor after the test were examined by six panelists in a sensory evaluation. Evaluations were made according to the following criteria on a scale of 1 (a drink with no addition (blank)) to 5 (each drink before the test).
# Table 10 presents mean values of the scored points evaluated by the six panelists.
# [3] = Fading suppressing effect, fluorescent light irradiation (Experiment Example 5); conditions: pH 3.1, final MY 0.003%, γ-CD 0.01%, EMIQ […]
# Protocol: as §1, §2
smiles,measurement,setting,value
"OC[C@H]1O[C@@H]2O[C@H]3[C@H](O)[C@@H](O)[C@@H](O[C@H]4[C@H](O)[C@@H](O)[C@@H](O[C@H]5[C@H](O)[C@@H](O)[C@@H](O[C@H]6[C@H](O)[C@@H](O)[C@@H](O[C@H]7[C@H](O)[C@@H](O)[C@@H](O[C@H]8[C@H](O)[C@@H](O)[C@@H](O[C@H]9[C@H](O)[C@@H](O)[C@@H](O[C@H]1[C@H](O)[C@H]2O)O[C@@H]9CO)O[C@@H]8CO)O[C@@H]7CO)O[C@@H]6CO)O[C@@H]5CO)O[C@@H]4CO)O[C@@H]3CO [γ-CD, γ-cyclodextrin]",percentage of remaining color (%),"[1]; Cochineal colorant 0.05%, UV Fade Meter 6 H",64.3%
same,percentage of remaining color (%),"[1]; Elderberry colorant 0.05%, UV Fade Meter 2 H",68.5%
same,percentage of remaining color (%),"[1]; Gardenia blue colorant 0.05%, UV Fade Meter 19 H",68.6%
same,percentage of remaining color (%),"[1]; Grape juice colorant 0.1%, UV Fade Meter 2 H",75.0%
same,percentage of remaining color (%),"[1]; Monascus colorant, UV Fade Meter 3 H",30.2%
same,percentage of remaining color (%),"[1]; Paprika colorant 0.05%, UV Fade Meter 3 H",50.3%
same,percentage of remaining color (%),"[1]; Purple corn colorant 0.05%, UV Fade Meter 4 H",72.8%
same,percentage of remaining color (%),"[1]; Purple sweet potato colorant 0.05%, UV Fade Meter 7 H",46.5%
same,percentage of remaining color (%),"[1]; Red cabbage colorant 0.05%, UV Fade Meter 10 H",53.9%
same,percentage of remaining color (%),"[1]; Safflower yellow colorant 0.05%, UV Fade Meter 4 H",48.6%
same,percentage of remaining color (%),"[1]; β-carotene 0.05%, UV Fade Meter 17 H",68.5%
same,"flavor change score, mean of six panelists","[2]; Coffee, Fluorescent light (20000 lx, 16 hr, 15° C.), scale 1 to 5",2.4
same,"flavor change score, mean of six panelists","[2]; Grape drink, Fluorescent light (20000 lx, 15 hr, 15° C.), scale 1 (blank) to 5 (before test)",1.6
same,"flavor change score, mean of six panelists","[2]; Grapefruit drink (20% fruit juice), Fade Meter ([…]), scale 1 to 5",2.2
same,"flavor change score, mean of six panelists","[2]; Grapefruit drink (20% fruit juice), Fluorescent light (20000 lx, 21 hr, 10° C.), scale 1 to 5",2.0
same,"flavor change score, mean of six panelists","[2]; Grapefruit drink (20% fruit juice), Heat (55° C., 64 hr), scale 1 to 5",2.8
same,"flavor change score, mean of six panelists","[2]; Grapefruit drink (100% fruit juice), Fluorescent light (20000 lx, 18 hr, 15° C.), scale 1 to 5",2.1
same,"flavor change score, mean of six panelists","[2]; Lemon drink, Fluorescent light (20000 lx, 21 hr, 10° C.), scale 1 to 5",2.2
same,"flavor change score, mean of six panelists","[2]; Milk tea, Fluorescent light (20000 lx, 18 hr, 15° C.), scale 1 to 5",2.3
same,"flavor change score, mean of six panelists","[2]; Orange drink (20% fruit juice), Fluorescent light (20000 lx, 18 hr, 15° C.), scale 1 to 5",2.3
same,"flavor change score, mean of six panelists","[2]; Sour milk beverage, Fluorescent light (20000 lx, 18 hr, 15° C.), scale 1 to 5",2.7
same,percentage of remaining color (%),"[3]; Cochineal colorant 0.05%, fluorescent light 1 D",64.2%
same,percentage of remaining color (%),"[3]; Elderberry colorant 0.05%, fluorescent light 6 D",63.8%
same,percentage of remaining color (%),"[3]; Gardenia blue colorant 0.05%, fluorescent light (time not given)",58.4%
same,percentage of remaining color (%),"[3]; Monascus colorant, fluorescent light 4 D",38.7%
same,percentage of remaining color (%),"[3]; Paprika colorant 0.05%, fluorescent light 6 D",71.2%
same,percentage of remaining color (%),"[3]; Purple corn colorant 0.05%, fluorescent light 2 D",65.5%
same,percentage of remaining color (%),"[3]; Purple sweet potato colorant 0.05%, fluorescent light 6 D",80.4%
same,percentage of remaining color (%),"[3]; Red cabbage colorant 0.05%, fluorescent light 4 D",62.8%
same,percentage of remaining color (%),"[3]; Safflower yellow colorant 0.05%, fluorescent light 6 D",68.1%
same,percentage of remaining color (%),"[3]; β-carotene 0.05%, fluorescent light 1 D",67.4%

# — US20120015090A1, “READILY WATER-SOLUBLE MYRICITRIN COMPOSITION” (SAN-EI GEN F.F.I., INC., priority 2009, published 2012)
